Results from US8983257B2, “Therapeutic light delivery apparatus, method, and system” (Nomir Medical Technologies, Inc., priority 2002, dated 2015).
Several values for one entry are separate records, joined by “and”; a condition that tells them apart may be missing. Identical values can stand only once. Entries after “also recorded” stand apart in the source; their conditions may differ.

Tests used:
Type in all cases: cell-based, Staphylococcus aureus
MRSA [1] = assay: MRSA/antimicrobial potentiation Experiment 4: CFU with or without methicillin, penicillin G or erythromycin, groups A4 to F4; settings: for CFU: agar with 30 μg/ml methicillin
From the text: Two different laser dosages based on an effective dose established in previous experiments were used to treat a saline-suspension of logarithmically growing MRSA, labeled A4 to F4.

MRSA [2] = assay: MRSA CFU count with methicillin after sub-lethal NIMELS laser (Example X); settings: methicillin at resistant MIC just below effectiveness level
From the text: The following illustrates the general antibacterial methods according to the invention, using a MRSA model for the in vitro Experiments V and VIII-XII.
a) μ1 is sub-lethal dosimetry from the NIMEL laser system on MRSA as a control and;

MRSA [3] = assay: MRSA/antimicrobial potentiation Experiment 2: CFU with or without 30 μg/ml methicillin, laser dosages A2 to H2; settings: for Fold increase in methicillin sensitivity: 30 μg/ml methicillin
Protocol: Eight different laser dosages based on an effective dose established in experiment 1 and previously were used to treat a saline-suspension of logarithmically growing MRSA, labeled A2 to H2.
(§1) The treated and a control untreated suspension were diluted and plated in triplicate on trypic soy agar with or without 30 μg/ml methicillin.
(§2) After 24 hrs of growth at 37° C. colonies were counted.

MRSA [4] = assay: MRSA/antimicrobial potentiation Experiment 3: CFU with or without 30 μg/ml methicillin, laser dosages A3 to H3; settings: for Fold increase in methicillin sensitivity: 30 μg/ml methicillin
Protocol: Eight different laser dosages based on an effective dose established in experiments 1 and 2 and previously were used to treat a saline-suspension of logarithmically growing MRSA, labeled A3 to H3.
[…] After 24 hrs of growth at 37° C. colonies were counted.

MRSA [5] = assay: MRSA/antimicrobial potentiation Experiment 1: CFU with or without 30 μg/ml methicillin, laser dosages A1 to H1; settings: for fewer CFU in the laser treated samples compared to the untreated controls: methicillin plates (30 μg/ml)
Protocol: Four separate experiments have been performed.
Eight different laser dosages were used to treat a saline-suspension of logarithmically growing MRSA, labeled A1 to H1.
as §1, §2
CFU (colony forming units) were compared between the plates with and without methicillin for both control (untreated) and treated MRSA.

Structure (SMILES): COc1cccc(OC)c1C(=O)N[C@@H]1C(=O)N2[C@@H]1SC(C)(C)[C@@H]2C(=O)O [Methicillin]
- CFU (MRSA [1]; Group A4, Cont (no laser), replicate plates 1-5, 24 hrs 37° C.): 97 CFU and 90 CFU
- CFU (MRSA [1]; Group A4, Exp (laser treated), replicate plates 1-5): 37 CFU and 33 CFU and 36 CFU (2×) and 39 CFU
- CFU (MRSA [1]; Group B4, Exp (laser treated), replicate plates 1-5): 46 CFU (2×) and 34 CFU and 42 CFU and 44 CFU
- synergy or potentiation with NIMELS in growth inhibition of MRSA colonies (in words) (MRSA [1]; sub-lethal NIMELS dosimetry, bar chart figure): synergistic effects; also recorded: potentiated by sub-lethal NIMELS dosimetry
- reversal of MRSA resistance in vitro by dual wavelength NOVEON laser (in words) (MRSA [1]; temperature levels not lethal to the organism): successful reversal of MRSA resistance
- effect of methicillin after sub-lethal NIMELS irradiation on growth of MRSA colonies (in words) (MRSA [2]): potentiated by sub-lethal NIMELS dosimetry; also recorded: produces a deleterious effect after sub-lethal NIMEL irradiation on normal growth of MRSA colonies
- CFU AVG (MRSA [3]; A2, Exp (laser treated), plates with 30 μg/ml methicillin): 41
- effectiveness of methicillin in laser treated samples (in words) (MRSA [3]; CFU on plates with and without 30 μg/ml methicillin, groups A2 to H2): significant increase in the effectiveness of methicillin in all laser treated samples with the exception of A2 and B2
- CFU AVG (MRSA [3]; D2, Cont (untreated suspension), plates with 30 μg/ml methicillin): 52
- CFU AVG (MRSA [3]; D2, Exp (laser treated), plates with 30 μg/ml methicillin): 2.3
- CFU AVG (MRSA [3]; E2, Exp (laser treated), plates with 30 μg/ml methicillin): 2.7
- CFU AVG (MRSA [3]; F2, Cont (untreated suspension), plates with 30 μg/ml methicillin): 71
- CFU AVG (MRSA [3]; G2, Exp (laser treated), plates with 30 μg/ml methicillin): 8.3
- CFU (MRSA [3]; H2, Cont (untreated suspension), plates with 30 μg/ml methicillin, single plates): 82
- Fold increase in methicillin sensitivity (MRSA [3]; laser dosage grouping A2): 0.84
- Fold increase in methicillin sensitivity (MRSA [3]; laser dosage grouping B2): 0.91
- Fold increase in methicillin sensitivity (MRSA [3]; laser dosage grouping C2): 3.20
- Fold increase in methicillin sensitivity (MRSA [3]; laser dosage grouping D2): 2.44
- Fold increase in methicillin sensitivity (MRSA [3]; laser dosage grouping E2): 4.33
- Fold increase in methicillin sensitivity (MRSA [3]; laser dosage grouping F2): 2.13
- Fold increase in methicillin sensitivity (MRSA [3]; laser dosage grouping G2): 3.47
- Fold increase in methicillin sensitivity (MRSA [3]; laser dosage grouping H2): 1.62
- CFU AVG (MRSA [4]; B3, Exp (laser treated), plates with 30 μg/ml methicillin): 19
- effectiveness of methicillin in laser treated samples (in words) (MRSA [4]; CFU on plates with and without 30 μg/ml methicillin, groups A3 to H3): significant increase in the effectiveness of methicillin in all laser treated samples
- CFU (MRSA [4]; D3, Cont (untreated suspension), plates with 30 μg/ml methicillin, single plates): 58
- CFU AVG (MRSA [4]; D3, Exp (laser treated), plates with 30 μg/ml methicillin): 3.6
- CFU AVG (MRSA [4]; F3, Exp (laser treated), plates with 30 μg/ml methicillin): 9.8
- CFU AVG (MRSA [4]; G3, Exp (laser treated), plates with 30 μg/ml methicillin): 8.4
- CFU AVG (MRSA [4]; H3, Exp (laser treated), plates with 30 μg/ml methicillin): 8.4
- Fold increase in methicillin sensitivity (MRSA [4]; laser dosage grouping A3): 1.98
- Fold increase in methicillin sensitivity (MRSA [4]; laser dosage grouping B3): 1.62
- Fold increase in methicillin sensitivity (MRSA [4]; laser dosage grouping C3): 1.91
- Fold increase in methicillin sensitivity (MRSA [4]; laser dosage grouping D3): 2.59
- Fold increase in methicillin sensitivity (MRSA [4]; laser dosage grouping E3): 2.09
- Fold increase in methicillin sensitivity (MRSA [4]; laser dosage grouping F3): 2.08
- Fold increase in methicillin sensitivity (MRSA [4]; laser dosage grouping G3): 3.16
- Fold increase in methicillin sensitivity (MRSA [4]; laser dosage grouping H3): 2.97
- AVG (CFU) (MRSA [5]; Exp (laser treated), laser dosage F1, with 30 μg/ml methicillin): 197 CFU
- fewer CFU in the laser treated samples compared to the untreated controls (MRSA [5]; condition A1): 30%
- fewer CFU in the laser treated samples compared to the untreated controls (MRSA [5]; condition B1): 33%
- fewer CFU in the laser treated samples compared to the untreated controls (MRSA [5]; condition C1): 67%
- sensitization of MRSA by laser treatment (in words) (MRSA [5]; treatments performed on sample A1, B1 and C1): sensitized the MRSA to the effects of methicillin
